The values that follow are results of earlier work, collected in patent US7972633B2, “Nutritional supplements for healthy memory and mental function” (Applied Cognitive Sciences, LLC, priority 2007, dated 2011).

The subject of data set [1] is patients with mild to moderate transient or permanent impairment of cognitive performance. To be noted: 10 or 20 mg three times a day for 16 weeks, compared to placebo.
Data set [2] has as its system healthy adults who have no evidence of cerebral dysfunction. As to conditions: two days' supplementation with 10, 20 or 40 mg daily, compared to placebo.

Turning to `CCOC(=O)C1=C[C@]2(CC)CCCN3CCc4c(n1c1ccccc41)[C@@H]32` [vinpocetine, Vinpocetine], in data set [1], the “concentration, memory and severity of illness” value was “significant improvements in concentration, memory, and reduced severity of illness”. Moreover, the “ability to distinguish discrete sensory data, reaction time, short-term memory functions” value in data set [2] is on record as “significantly greater extent than placebo”.
